Where no end group is shown, it is not given here.
Experiments:
Assay in all cases: micro-dilution assay (MBC, LD90)
Assay type in all cases: cell-based
[1] = system: Acinetobacter baumannii ATCC 19606
Method: (§1) The anti-bacterial activity of hβD2 was tested by a micro-dilution assay. Bacteria and fungi were streaked from a glycerol stock onto a Brain Heart Infusion (BHI) agar plate (3.7% w/v BHI Bouillon, 1.5% w/v Agar), grown overnight at 37° C. and 30° C., respectively and subsequently used to inoculate 40 ml of 3.7% w/v BHI Bouillon without any antibiotics in 100 ml flasks. Fresh cells were harvested by centrifugation at 16000 rpm for 10 min and washed twice with 10 mM sodium phosphate buffer, pH 7.2. The optical density was adjusted to 10^4 cells/ml. For anti-bacterial testing hβD2 was incubated in one well of a microtiter plate containing 100 μl of the bacterial suspension. Therefore, ten microlitres of hβD2 solution with a range of final concentrations tested from 0.0125 up to and including 100 mg/l was added to the bacterial suspension and incubated at 37° C. and 30° C., respectively for 2 h before colony forming units were determined. Colony forming units (CFU) were determined after plating 100 μl of a 1:100 dilution of the bacterial suspension on petri dishes with BHI medium and incubating them overnight at 37° C. For every group of the hβD2 added samples and the controls, 5 independent anti-bacterial assays were performed. A control (NC) of bacterial growth was examined for every independent assay. The number of CFU on the control (consisting of a single petri dish) was set to 0% bactericidal activity. The reduction in the CFU resulting from the anti-bacterial activity of hβD2 was related to the absolute CFU of the control within every independent assay. This value, given as a percentage of the bacterial “killing” activity, was used to describe the antibacterial activity. This kind of normalisation of the antibacterial data was performed for every experimental group.
(§2) The antibacterial activity of hβD2 were given either as minimum bactericidal concentration (MBC), i.e., the minimum concentration of hβD2 in μg/ml which is required to kill 99.9% of the bacteria or fungi or as lethal dose (LD90), i.e., the concentration of hβD2 in μg/ml which is lethal for 90% of bacteria or fungi.

[2] = system: Proteus mirabilis ATCC 21100
Method: as §1, §2

E. coli ATCC 25922 = system: E. coli ATCC 25922
Method: as §1, §2

[3] = system: Staphylococcus aureus (MRSA 355) (wild-type)
Method: as §1, §2

E. coli ATCC 35218 = system: E. coli ATCC 35218
Method: as §1, §2

[4] = system: Citrobacter freundii BK 3796/00 (wild-type)
Method: as §1, §2

[5] = system: Klebsiella pneumoniae ATCC 700603 ESBL
Method: as §1, §2

[6] = system: Pseudomonas aeruginosa ATCC 11446
Method: as §1, §2

[7] = system: Pseudomonas aeruginosa CF 479 mr (wild-type)
Method: as §1, §2

[8] = system: Staphylococcus aureus (MRSA 344) (wild-type)
Method: as §1, §2

[9] = system: Streptococcus mutans ATCC 35668
Method: as §1, §2

[10] = system: Propionibacterium acnes NCTC 737
Method: as §1, §2

[11] = system: Pseudomonas aeruginosa ATCC 10145
Method: as §1, §2

[12] = system: Acinetobacter haemolyticus ATCC 17906
Method: as §1, §2

[13] = system: Pseudomonas aeruginosa CF 509 mr (wild-type)
Method: as §1, §2

[14] = system: Proteus vulgaris BK 8730/99 (wild-type)
Method: as §1, §2

[15] = system: Citrobacter freundii NCTC 9750
Method: as §1, §2

[16] = system: Citrobacter freundii UR 1776/03 (wild-type)
Method: as §1, §2

[17] = system: Candida albicans ATCC 24433
Method: as §1, §2

[18] = system: Proteus mirabilis ATCC 9240
Method: as §1, §2

[19] = system: Streptococcus pneumoniae ATCC 33400
Method: as §1, §2

[20] = system: Cryptococcus neoformans ATCC 62066
Method: as §1, §2

[21] = system: Serratia marcescens Mero 060/148 (wild-type)
Method: as §1, §2

[22] = system: Campylobacter jejuni ATCC 33560
Method: as §1, §2

[23] = system: Enterococcus faecium (VRE) W 354 (wild-type)
Method: as §1, §2

[24] = system: Pseudomonas aeruginosa CF 645 (mukoid)(wild-type)
Method: as §1, §2

Substance: human β-defensin-2 (GIGDPVTCLKSGAICHPVFCPRRYKQIGTCGLPGTKCCKKP; ends and bridges not checked; cysteine pairing not given here) [hβD2, recombinant hβD2]
- LD 90 = μg/ml 90% killing [1]: 12.5 µg/mL
- MBC = μg/ml 99.9% killing [1]: 25 µg/mL
- LD 90 = μg/ml 90% killing [2]: 50 µg/mL
- MBC = μg/ml 99.9% killing [2]: >100 µg/mL
- LD 90 = μg/ml 90% killing (E. coli ATCC 25922): 6.25 µg/mL
- MBC = μg/ml 99.9% killing (E. coli ATCC 25922): 12.5 µg/mL
- LD 90 = μg/ml 90% killing [3]: 25 µg/mL
- MBC = μg/ml 99.9% killing [3]: 100 µg/mL
- LD 90 = μg/ml 90% killing (E. coli ATCC 35218): 3.125 µg/mL
- MBC = μg/ml 99.9% killing (E. coli ATCC 35218): 6.25 µg/mL
- LD 90 = μg/ml 90% killing [4]: 3.125 µg/mL
- MBC = μg/ml 99.9% killing [4]: 6.25 µg/mL
- LD 90 = μg/ml 90% killing [5]: 25 µg/mL
- MBC = μg/ml 99.9% killing [5]: 100 µg/mL
- LD 90 = μg/ml 90% killing [6]: 12.5 µg/mL
- MBC = μg/ml 99.9% killing [6]: 12.5 µg/mL
- LD 90 = μg/ml 90% killing [7]: 12.5 µg/mL
- MBC = μg/ml 99.9% killing [7]: 25 µg/mL
- LD 90 = μg/ml 90% killing [8]: 100 µg/mL
- MBC = μg/ml 99.9% killing [8]: 100 µg/mL
- LD 90 = μg/ml 90% killing [9]: 100 µg/mL
- MBC = μg/ml 99.9% killing [9]: >100 µg/mL
- LD 90 = μg/ml 90% killing [10]: 50 µg/mL
- MBC = μg/ml 99.9% killing [10]: 100 µg/mL
- LD 90 = μg/ml 90% killing [11]: 6.25 µg/mL
- MBC = μg/ml 99.9% killing [11]: 12.5 µg/mL
- LD 90 = μg/ml 90% killing [12]: 0.39 µg/mL
- MBC = μg/ml 99.9% killing [12]: 1.56 µg/mL
- LD 90 = μg/ml 90% killing [13]: 12.5 µg/mL
- MBC = μg/ml 99.9% killing [13]: 25 µg/mL
- LD 90 = μg/ml 90% killing [14]: 100 µg/mL
- MBC = μg/ml 99.9% killing [14]: >100 µg/mL
- LD 90 = μg/ml 90% killing [15]: 12.5 µg/mL
- MBC = μg/ml 99.9% killing [15]: 50 µg/mL
- LD 90 = μg/ml 90% killing [16]: 1.56 µg/mL
- MBC = μg/ml 99.9% killing [16]: 6.25 µg/mL
- LD 90 = μg/ml 90% killing [17]: 3.125 µg/mL
- MBC = μg/ml 99.9% killing [17]: 25 µg/mL
- LD 90 = μg/ml 90% killing [18]: 100 µg/mL
- MBC = μg/ml 99.9% killing [18]: >100 µg/mL
- LD 90 = μg/ml 90% killing [19]: 25 µg/mL
- MBC = μg/ml 99.9% killing [19]: 50 µg/mL
- LD 90 = μg/ml 90% killing [20]: 0.78 µg/mL
- MBC = μg/ml 99.9% killing [20]: 12.5 µg/mL
- LD 90 = μg/ml 90% killing [21]: 50 µg/mL
- MBC = μg/ml 99.9% killing [21]: 100 µg/mL
- LD 90 = μg/ml 90% killing [22]: 3.125 µg/mL
- MBC = μg/ml 99.9% killing [22]: 6.25 µg/mL
- LD 90 = μg/ml 90% killing [23]: 50 µg/mL
- MBC = μg/ml 99.9% killing [23]: 100 µg/mL
- LD 90 = μg/ml 90% killing [24]: 25 µg/mL
- MBC = μg/ml 99.9% killing [24]: 12.5 µg/mL
